Results on four compounds are retold here after patent US20140329863A1 (priority 2011, published 2014).

Data set [1] in a line: Hepatic microsomal stability, human. The settings on record: for half-life at 1 μM: pH 7.4.
Data set [2] can be described thus: Hepatic microsome stability, human. The settings on record: for metabolism in HLM incubations: pooled human liver microsomes, 60 min, with or without CYP inhibitors. Format: in vitro ADME. Here is the method:
(§1) Hepatic microsomal stability assays were performed in two stages. In the first set of experiments, aliquots of the DMSO solute stocks were diluted into ACN and then into assay buffer (PBS, pH 7.4, ±0.05% PS80). Final experimental solute concentrations were 1 μM (0.6% ACN, 0.01% DMSO). Commercially available mouse, rat, or human hepatic microsomes (˜0.5 mg/ml final concentration), and NADPH (1 mM) or PBS were added. The resulting mixture was incubated at 37° C., and aliquots removed at 0, 1, 10, 30 and 60 min, then quenched with ACN containing 2 μM carbamazepine (internal standard). […] Duplicate incubations were run for each time-point. The percentage of solute remaining at the end of the incubation was used to determine solute half-life.
(§2) These were diluted 500-fold into 1 mL of microsomal incubation mixture to yield a final concentration of 1 μM. The incubation mixture was composed of 100 mM phosphate buffer, pH 7.4, and NADPH regenerating system (BD Biosciences NADPH Regenerating System Solutions A & B). This mixture was preincubated at 37° C. for 5 min in an Eppendorf Thermo mixer, and the reaction initiated by addition of 0.5 mg (25 μl of a 20 mg/mL solution) of liver microsomes. Aliquots (100 μl) were withdrawn at 0, 5, 15, 30, and 60 min, and added to 100 μl ACN containing internal standard. […] The percentage of solute remaining at the end of the incubation was used to determine species-specific values of scaled intrinsic clearance, hepatic clearance, and predicted hepatic extraction based upon the calculations below {Obach, 1999 #9097}.
(§3) for which mg microsomal protein/gm liver was 45 for all species, and gm liver/kg body weight were 32 for dog, 88 for mouse, 40 for rat and 25 for human.
(§4) Clh=(Q*Clint,scaled)/(Q+Clint,scaled)
(§5) for which Q was hepatic blood flow; values of 90 ml/min/kg for mouse, 66 ml/min/kg for rat, and 21 ml/min/kg for human were used.
(§6) for which ER estimates the amount of compound cleared during a single pass through the liver (Low ER<0.3, moderate ER 0.3-0.7, high ER>0.7).
A general note: Liver microsomes are vesicles of endoplasmic reticulum, rich in cytochrome P450 enzymes.

The conditions of data set [3]: for solubility in FaSSIF (in words): fasted-state simulated intestinal fluid; for solubility at pH 2.0 (in words): pH 2 (HCl) buffer.
Data set [4] is described as follows: Multidose (three-day) pharmacokinetics in liquid diet in FVB mice. The settings on record: for concentration at 3 days: FVB, mouse, in vivo.
Data set [5] can be described thus: Hepatic microsome stability, mouse. The class given is in vitro ADME. Conditions: mouse liver microsomes. Here is the method:
as §1, §2, §3, §4, §5, §6

The next data set deals with P-gp (MDR1). In words: in vitro. Conditions: dog, MDCK-MDR1.
Another data set can be described thus: in vitro. The settings on record: dog, MDCK-MDR1.
The conditions of data set [6]: […].
Data set [7] can be described thus: Hepatic microsomal stability, rat. The settings on record: for half-life at 1 μM: Sprague-Dawley, pH 7.4.
A short description of data set [8]: Hepatic microsomal stability, mouse. Conditions: for half-life at 1 μM: CD-1, mouse, pH 7.4.
The nature of data set [9]: Hepatic microsomal stability, dog. Format: in vitro ADME. The settings on record: for half-life at 1 μM: beagle, liver microsomes, pH 7.4. As for the experimental part: as §2, with “to […] ACN containing” for “to 100 μl ACN containing”, “calculations below (Obach, 1999).” for “calculations below {Obach, 1999 #9097}.”
as §3
for which ER estimates the amount of compound cleared during a single pass through the liver (Low ER <0.3, moderate ER 0.3-0.7, high ER>0.7).

The next data set has as its system ScN2a-c13 cells. In words: cells. The class given is cell-based. The settings on record: Mus musculus; N=3; read-out: EC50 by calcein for cell viability.
The subject of data set [10] is PrP^Sc in dividing ScN2a-c13 cells. The settings on record: read-out: EC50 (ELISA), reduction of PrP^Sc load; dividing ScN2a-c13 cells. For orientation: ELISA stands for enzyme-linked immunosorbent assay.
Where [11] appears, read: 40 mg/kg, Brain Concentration (Css), three-day dosing in liquid diet, brain.
Setting [12] is: 80 mg/kg, Brain Concentration (Css), three-day dosing in liquid diet, brain.
[13] abbreviates: 130 mg/kg, Brain Concentration (Css), three-day dosing in liquid diet, brain.
[14] abbreviates: 210 mg/kg, Brain Concentration (Css), three-day dosing in liquid diet, brain.
Setting [15] is: female dog microsomes, read-out: t1/2 Dog Female.
Setting [16] is: male dog microsomes, read-out: t1/2 Dog Male.

Entries after “also recorded” stand apart in the source; their conditions may differ. Where two headings read alike, the source gives them in different places.

On to `c1ccc2cc(Nc3nc(-c4ccncc4)cs3)ncc2c1` [IND85, Isoquinolin-3-yl-(4-pyridin-4-yl-thiazol-2-yl)-amine], for which the “Hepatic Extraction Ratio Human” value in data set [1] (human) and in data set [1] (human microsomes) was 0.7 in each case. Moreover, the “% remaining after a 60-min incubation, Human” value (shortened to “% remaining … Human”) in [1] (human liver microsomes) was determined as 66%. Besides, the half-life at 1 μM in [1] (human, human liver microsomes) is 53 min; in data set [1] (human, liver microsomes), 53 min; in [7] (rat) it was 18 min; in data set [8] (liver microsomes) it was 15 min; in data set [8] (mouse liver microsomes), 15 min. Besides, the “hepatic extraction ratio (ER)” value in [2] (human liver microsomes), in [5] and in data set [6] was “higher” in each case. In data set [3], the “solubility in FaSSIF (in words)” value is “lower solubility”. Besides, in data set [3], the “solubility at pH 2.0 (in words)” value is “higher solubility”. Moreover, the concentration at 3 days in [4] (setting [11]) is 0.02 ± 0.03 µM; in [4] (setting [12]) it was 0.08 ± 0.03 µM; in data set [4] (setting [13]) it was 0.04 ± 0.03 µM; in data set [4] (setting [14]), 0.1 ± 0.07 µM; in [4] (Brain and plasma concentrations, 40, 80, 130 and 210 mg/kg/day for 3 days), at most 1 µM. The efflux ratio (usually a quotient of directional permeabilities that is used to spot active efflux) with P-gp (MDR1) worked out at 1.5. Besides, the Papp A→B (in general, how fast a substance crosses the layer from the apical side) in the data set “in vitro” turned out to be 3.03 ×10⁻⁶ cm/s. Also, in “in vitro”, the Papp B→A (as a rule, the apparent permeability from the basolateral to the apical side of a cell layer) was determined as 4.44 ×10⁻⁶ cm/s. The “% remaining after a 60-min incubation, Rat” value (shortened to “% remaining … Rat”) in data set [7] stood at 32%. The “Hepatic Extraction Ratio Rat” value in data set [7] (rat) and in data set [7] (rat microsomes) was 0.8 each time. For the same compound, the “Hepatic Extraction Ratio Mouse” value in [8] (mouse) and in data set [8] (mouse microsomes) was 0.9 each time. In data set [8] (mouse liver microsomes), the “% remaining after a 60-min incubation, Mouse” value (“% remaining … Mouse” for short) worked out at 6%.

As for `Cc1ccnc(Nc2nc(-c3ccc(-c4ccccn4)s3)cs2)c1` [IND81, (4-Methyl-pyridin-2-yl)-[4-(5-pyridin-2-yl-thiophen-2-yl)-thiazol-2-yl]-amine], the half-life at 1 μM was found to be 40 min in data set [1] (both, human, liver microsomes); 52 min in data set [1] (human, human liver microsomes); 52 min in data set [1] (human, liver microsomes); 26 min in [9] (setting [15]); 23 min in data set [9] (setting [16]); 58 min in data set [7] (rat). The half-life at 1 μM in data set [8] (liver microsomes) was 19 min; in data set [8] (mouse liver microsomes) it was 19 min; in [8] (female, liver microsomes), 26 min; in [8] (male, liver microsomes) it was 23 min. Besides, the “% remaining … Human” value in [1] (human liver microsomes) stood at 48%. In addition, the “metabolism in HLM incubations” value in [2] (1 μM) was “relatively high turnover”. Besides, the “solubility in FaSSIF (in words)” value in [3] is “lower solubility”. Further, the “solubility at pH 2.0 (in words)” value in data set [3] was “higher solubility”. The same compound came in with a Papp A→B in “in vitro” of 16 ×10⁻⁶ cm/s. This compound showed a Papp B→A in the data set “in vitro” of 20.9 ×10⁻⁶ cm/s. The EC50 – broadly, the midpoint of the concentration-response curve – in the data set with ScN2a-c13 cells was over 10000 nM. For the same compound, in data set [7], the “% remaining … Rat” value is listed as 48%. Further, in data set [8] (mouse liver microsomes), the “% remaining … Mouse” value was 10%.

On to `C(=N\Nc1ccc(-c2cnco2)cc1)/c1ccncc1` [IND54304, reference compound], for which the half-life at 1 μM in data set [1] (both, human, liver microsomes) came to 130 min; in data set [9] (setting [15]), 16 min; in [9] (setting [16]), 20 min; in [8] (female, liver microsomes), 34 min; in data set [8] (male, liver microsomes) it was 25 min. For the same compound, in [1] (human (mixed) microsomes, gender study), the “Hepatic Extraction Ratio Human” value is on record as 0.34. The entries for the “hepatic extraction ratio (ER)” value in data set [2] (human liver microsomes) and in [5] were “low (Low ER<0.3)” and “moderate (moderate ER 0.3-0.7)”, respectively. Besides, the “Hepatic Extraction Ratio Dog Female” value in [9] (female dog microsomes) worked out at 0.80. Moreover, the “Hepatic Extraction Ratio Dog Male” value in [9] (male dog microsomes) stood at 0.79. Also, the “Hepatic Extraction Ratio Rat Female” value in data set [7] (female rat microsomes) is listed as 0.27. The “Hepatic Extraction Ratio Rat Male” value in data set [7] (male rat microsomes) is 0.27. Besides, the “Hepatic Extraction Ratio Mouse Female” value in [8] (female mouse microsomes) was found to be 0.64. In addition, in data set [8] (male mouse microsomes), the “Hepatic Extraction Ratio Mouse Male” value came to 0.71. Also, the EC50 in data set [10] came to 400 nM.

For the compound `Cc1cccc(Nc2nc(-c3ccc(-c4ccccc4)cc3)cs2)n1` [IND24, (4-Biphenyl-4-yl-thiazol-2-yl)-(6-methyl-pyridin-2-yl)-amine], the half-life at 1 μM in [1] (both, human, liver microsomes) is 1400 min; in data set [1] (human, human liver microsomes), over 60 min; in data set [1] (human, liver microsomes), over 60 min; in data set [2] (pH 7.4, human liver microsomes, 1 μM), over 60 min; in data set [5] (pH 7.4, 1 μM) it was over 60 min; in data set [9] (setting [15]) it was 51 min. Besides, the half-life at 1 μM in [9] (male dog microsomes, * extrapolated, read-out: t1/2 Dog Male (extrapolated)) was 140 min; in [7] (rat), over 60 min; in [8] (liver microsomes), over 60 min; in data set [8] (mouse liver microsomes), over 60 min; in data set [8] (female, liver microsomes), 290 min; in [8] (male, liver microsomes), 190 min. In data set [1] (human liver microsomes), the “% remaining … Human” value is 105%. For the same compound, the “metabolic stability (in words)” value in data set [2] (human liver microsomes) is listed as “stable; also recorded: excellent stability”; in data set [5], “stable; also recorded: excellent stability”; in [6], “stable”. In addition, the “metabolism in HLM incubations” value in data set [2] (1 μM) is on record as “very little metabolism”. For the same compound, the concentration at 3 days in data set [4] (setting [11]) came to 8.7 ± 1.46 µM; in data set [4] (40 mg/kg, Plasma Concentration (Css), three-day dosing in liquid diet, plasma), 8.19 ± 8.09 µM; in data set [4] (setting [12]), 19.3 ± 2.28 µM; in data set [4] (80 mg/kg, Plasma Concentration (Css), three-day dosing in liquid diet, plasma), 5.55 ± 1.18 µM; in data set [4] (setting [13]) it was 31.8 ± 5.46 µM; in [4] (130 mg/kg, Plasma Concentration (Css), three-day dosing in liquid diet, plasma), 11.7 ± 4.85 µM. The concentration at 3 days in data set [4] (setting [14]) worked out at 37.4 ± 9.06 µM; in data set [4] (210 mg/kg, Plasma Concentration (Css), three-day dosing in liquid diet, plasma) it was 18.9 ± 20.5 µM. The compound further came in with a Brain concentrations in data set [4] (female FVB mice, 75 mg/kg, formulations containing 0.125-1.25% (v/v) PEG400) of over 8 µM. The half-maximal effective concentration (EC50) was over 10000 nM in the data set on ScN2a-c13 cells and 1270 nM in [10]. Also, the “% remaining … Rat” value in [7] stood at 90%. In addition, the “% remaining … Mouse” value in [8] (mouse liver microsomes) worked out at 89%.
